Measurements reported in patent publication US6455540B1, “Methods of use of quinolone compounds against anaerobic pathogenic bacteria” (priority 1999, dated 2002).

How the values were obtained:
Test in all cases: Agar dilution MIC
[1] = tested on: Prevotella denticola/loeschii group; type: cell-based; details: 6 isolates
[2] = tested on: Anaerobiospirillum succiniciproducens; type: cell-based; details: 3 isolates
[3] = tested on: Clostridium clostridioforme; type: cell-based; details: 11 isolates
[4] = tested on: Bacteroides ureolyticus; type: cell-based; details: 17 isolates
[5] = tested on: Fusobacterium spp. group 2; type: cell-based, Fusobacterium mortiferum, necrogenes, ulcerans; details: 12 isolates
[6] = tested on: Fusobacterium spp group 1; type: cell-based; details: 19 isolates
[7] = tested on: Fusobacterium russii; type: cell-based
[8] = tested on: Actinomyces israelii; type: cell-based; details: 6 isolates
[9] = tested on: Bacteroides gracilis; type: cell-based, Bacteroides gracilis (Campylobacter gracilis); details: 11 isolates
[10] = tested on: Actinomyces odontolyticus; type: cell-based; details: 10 isolates
[11] = tested on: Prevotella melaninogenica; type: cell-based; details: 12 isolates
[12] = tested on: Porphyromonas gingivalis; type: cell-based; details: 13 isolates
[13] = tested on: Peptostreptococcus magnus; type: cell-based; details: 13 isolates
[14] = tested on: Veillonella spp.; type: cell-based; details: 24 isolates
[15] = tested on: Prevotella buccae-oris group; type: cell-based; details: 22 isolates
[16] = tested on: Peptostreptococcus prevotii; type: cell-based; details: 9 isolates
[17] = tested on: Clostridium dfficile; type: cell-based, Clostridium difficile; details: 14 isolates
[18] = tested on: Prevotella intermedia; type: cell-based; details: 11 isolates
[19] = tested on: Porphyromonas macaccae; type: cell-based; details: 13 isolates
[20] = tested on: Clostridium inocuum; type: cell-based, Clostridium innocuum; details: 11 isolates
[21] = tested on: Clostridium ramosum; type: cell-based; details: 10 isolates
[22] = tested on: Bilophila wadsworthia; type: cell-based; details: 16 isolates; agar supplemented with pyruvate
[23] = tested on: Peptostreptococcus micros; type: cell-based; details: 12 isolates
[24] = tested on: Fusobacterium varium; type: cell-based; details: 17 isolates
[25] = tested on: Prevotella bivia; type: cell-based; details: 21 isolates
[26] = tested on: Prevotella heparinolytica; type: cell-based; details: 16 isolates
[27] = tested on: Anaerobiospirillum thomasii; type: cell-based; details: 13 isolates
[28] = tested on: Peptostreptococcus asaccharolyticus; type: cell-based; details: 11 isolates
[29] = tested on: Bacteroides tectum; type: cell-based; details: 22 isolates

Q: For `CC1(C)S[C@@H]2[C@H](NC(=O)Cc3ccccc3)C(=O)N2[C@H]1C(=O)O` [Penicillin G], which “Minimal Inhibitory Concentration 50% (MIC50)” value [1] is on record?
A: Its value is 4 µg/mL.

Q: And the “Minimal Inhibitory Concentration 50% (MIC50)” value [2]?
A: Its value is 0.5 µg/mL.

Q: What about the “Minimal Inhibitory Concentration Range” value [2] of the same compound?
A: The value was 0.5 to 1 µg/mL.

Q: What about the “Minimal Inhibitory Concentration 50% (MIC50)” value [3] of the same compound?
A: The value was 1 µg/mL.

Q: What about the “Minimal Inhibitory Concentration 90% (MIC90)” value [3] of the same compound?
A: Its value is 16 µg/mL.

Q: What about the “Minimal Inhibitory Concentration 90% (MIC90)” value [4] of the same compound?
A: Its value is 0.25 µg/mL.

Q: What about the “Minimal Inhibitory Concentration 50% (MIC50)” value [5] of the same compound?
A: The value was 0.25 µg/mL.

Q: And the “Minimal Inhibitory Concentration 90% (MIC90)” value [5]?
A: Its value is 0.5 µg/mL.

Q: What about the “Minimal Inhibitory Concentration 90% (MIC90)” value [6] of the same compound?
A: The value was 2 µg/mL.

Q: What about the “Minimal Inhibitory Concentration 50% (MIC50)” value [7] of the same compound?
A: Its value is 0.03 µg/mL.

Q: And the “Minimal Inhibitory Concentration 90% (MIC90)” value [7]?
A: The value was 0.06 µg/mL.

Q: What about the “Minimal Inhibitory Concentration 50% (MIC50)” value [8] of the same compound?
A: The value was 0.03 µg/mL.

Q: And the “Minimal Inhibitory Concentration 50% (MIC50)” value [9]?
A: Its value is 0.125 µg/mL.

Q: And the “Minimal Inhibitory Concentration 90% (MIC90)” value [9]?
A: The value was 4 µg/mL.

Q: What about the “Minimal Inhibitory Concentration 50% (MIC50)” value [10] of the same compound?
A: The value was 0.125 µg/mL.

Q: What about the “Minimal Inhibitory Concentration 90% (MIC90)” value [10] of the same compound?
A: Its value is “.0125 µg/mL”.

Q: What about the “Minimal Inhibitory Concentration Range” value [10] of the same compound?
A: The value was 0.125 to 0.25 µg/mL.

Q: What about the “Minimal Inhibitory Concentration 50% (MIC50)” value [11] of the same compound?
A: The value was 0.25 µg/mL.

Q: What about the “Minimal Inhibitory Concentration 90% (MIC90)” value [11] of the same compound?
A: Its value is 2 µg/mL.

Q: What about the “Minimal Inhibitory Concentration 90% (MIC90)” value [12] of the same compound?
A: The value was 0.03 µg/mL.

Q: And the “Minimal Inhibitory Concentration 50% (MIC50)” value [13]?
A: The value was 0.03 µg/mL.

Q: And the “Minimal Inhibitory Concentration 90% (MIC90)” value [13]?
A: The value was 0.25 µg/mL.

Q: What about the “Minimal Inhibitory Concentration 50% (MIC50)” value [14] of the same compound?
A: Its value is 1 µg/mL.

Q: And the “Minimal Inhibitory Concentration 90% (MIC90)” value [14]?
A: Its value is 4 µg/mL.

Q: And the “Minimal Inhibitory Concentration 50% (MIC50)” value [15]?
A: Its value is 8 µg/mL.

Q: What about the “Minimal Inhibitory Concentration 90% (MIC90)” value [15] of the same compound?
A: Its value is greater than 32 µg/mL.

Q: And the “Minimal Inhibitory Concentration 50% (MIC50)” value [16]?
A: Its value is 0.03 µg/mL.

Q: What about the “Minimal Inhibitory Concentration Range” value [16] of the same compound?
A: The value was 0.03 to 0.06 µg/mL.

Q: What about the “Minimal Inhibitory Concentration 50% (MIC50)” value [17] of the same compound?
A: The value was 2 µg/mL.

Q: What about the “Minimal Inhibitory Concentration 90% (MIC90)” value [17] of the same compound?
A: Its value is 4 µg/mL.

Q: And the “Minimal Inhibitory Concentration Range” value [17]?
A: The value was 1 to 4 µg/mL.

Q: And the “Minimal Inhibitory Concentration 50% (MIC50)” value [18]?
A: Its value is 0.03 µg/mL.

Q: And the “Minimal Inhibitory Concentration 90% (MIC90)” value [18]?
A: The value was 4 µg/mL.

Q: What about the “Minimal Inhibitory Concentration 50% (MIC50)” value [19] of the same compound?
A: Its value is 0.5 µg/mL.

Q: And the “Minimal Inhibitory Concentration 90% (MIC90)” value [19]?
A: The value was 0.5 µg/mL.

Q: What about the “Minimal Inhibitory Concentration 50% (MIC50)” value [20] of the same compound?
A: The value was 0.5 µg/mL.

Q: What about the “Minimal Inhibitory Concentration 90% (MIC90)” value [20] of the same compound?
A: Its value is 0.5 µg/mL.

Q: What about the “Minimal Inhibitory Concentration 50% (MIC50)” value [21] of the same compound?
A: Its value is 0.06 µg/mL.

Q: What about the “Minimal Inhibitory Concentration 90% (MIC90)” value [21] of the same compound?
A: Its value is 1 µg/mL.

Q: And the “Minimal Inhibitory Concentration Range” value [21]?
A: The value was 0.06 to 1 µg/mL.

Q: And the “Minimal Inhibitory Concentration 50% (MIC50)” value [22]?
A: The value was 4 µg/mL.

Q: And the “Minimal Inhibitory Concentration 90% (MIC90)” value [22]?
A: The value was 8 µg/mL.

Q: And the “Minimal Inhibitory Concentration Range” value [22]?
A: The value was 2 to 16 µg/mL.

Q: And the “Minimal Inhibitory Concentration 90% (MIC90)” value [23]?
A: Its value is 0.03 µg/mL.

Q: What about the “Minimal Inhibitory Concentration 50% (MIC50)” value [24] of the same compound?
A: Its value is 0.5 µg/mL.

Q: What about the “Minimal Inhibitory Concentration 90% (MIC90)” value [24] of the same compound?
A: Its value is 8 µg/mL.

Q: What about the “Minimal Inhibitory Concentration 50% (MIC50)” value [25] of the same compound?
A: The value was 16 µg/mL.

Q: And the “Minimal Inhibitory Concentration 90% (MIC90)” value [25]?
A: Its value is 32 µg/mL.

Q: And the “Minimal Inhibitory Concentration Range” value [25]?
A: The value was 0.25 to 32 µg/mL.

Q: What about the “Minimal Inhibitory Concentration 50% (MIC50)” value [26] of the same compound?
A: The value was 0.06 µg/mL.

Q: What about the “Minimal Inhibitory Concentration 90% (MIC90)” value [26] of the same compound?
A: The value was 0.125 µg/mL.

Q: What about the “Minimal Inhibitory Concentration Range” value [26] of the same compound?
A: Its value is 0.06 to 0.25 µg/mL.

Q: What about the “Minimal Inhibitory Concentration 50% (MIC50)” value [27] of the same compound?
A: Its value is 0.06 µg/mL.

Q: And the “Minimal Inhibitory Concentration 90% (MIC90)” value [27]?
A: The value was 0.125 µg/mL.

Q: And the “Minimal Inhibitory Concentration Range” value [27]?
A: Its value is 0.06 to 0.125 µg/mL.

Q: What about the “Minimal Inhibitory Concentration 50% (MIC50)” value [28] of the same compound?
A: The value was 0.03 µg/mL.

Q: And the “Minimal Inhibitory Concentration 90% (MIC90)” value [28]?
A: Its value is 0.25 µg/mL.

Q: And the “Minimal Inhibitory Concentration 50% (MIC50)” value [29]?
A: The value was 0.03 µg/mL.

Q: What about the “Minimal Inhibitory Concentration 90% (MIC90)” value [29] of the same compound?
A: The value was 16 µg/mL.
